Columns and labels:
[1] = target: Metabotropic glutamate receptor 5 (Homo sapiens, UniProt P41594); experiment: Antagonist activity at human mGluR5; type: functional
[2] = target: Metabotropic glutamate receptor 1 (Homo sapiens, UniProt Q13255); experiment: Antagonist activity at human mGluR1; type: functional
[3] = AUC in rat at 10 mg/kg, po by LC/API-MS/MS; type: ADME, organism-based; set-up: dose 10 mg/kg, route oral; conditions: plasma
[4] = Drug level in rat brain at 10 mg/kg, po after 6 hrs; type: ADME, organism-based; set-up: dose 10 mg/kg, route oral; conditions: read-out: Drug uptake
[5] = in vivo; conditions: rat, brain/plasma, po, 10 mg/kg
Description: Ratio of drug level in brain to plasma in rat at 10 mg/kg, po

[6] = target: Metabotropic glutamate receptor 1 (Rattus norvegicus, UniProt P23385); experiment: Antagonist activity at rat mGluR1; type: functional
Sequence of Metabotropic glutamate receptor 1 (Rattus norvegicus, UniProt P23385) (P23385 whole entry, looked up): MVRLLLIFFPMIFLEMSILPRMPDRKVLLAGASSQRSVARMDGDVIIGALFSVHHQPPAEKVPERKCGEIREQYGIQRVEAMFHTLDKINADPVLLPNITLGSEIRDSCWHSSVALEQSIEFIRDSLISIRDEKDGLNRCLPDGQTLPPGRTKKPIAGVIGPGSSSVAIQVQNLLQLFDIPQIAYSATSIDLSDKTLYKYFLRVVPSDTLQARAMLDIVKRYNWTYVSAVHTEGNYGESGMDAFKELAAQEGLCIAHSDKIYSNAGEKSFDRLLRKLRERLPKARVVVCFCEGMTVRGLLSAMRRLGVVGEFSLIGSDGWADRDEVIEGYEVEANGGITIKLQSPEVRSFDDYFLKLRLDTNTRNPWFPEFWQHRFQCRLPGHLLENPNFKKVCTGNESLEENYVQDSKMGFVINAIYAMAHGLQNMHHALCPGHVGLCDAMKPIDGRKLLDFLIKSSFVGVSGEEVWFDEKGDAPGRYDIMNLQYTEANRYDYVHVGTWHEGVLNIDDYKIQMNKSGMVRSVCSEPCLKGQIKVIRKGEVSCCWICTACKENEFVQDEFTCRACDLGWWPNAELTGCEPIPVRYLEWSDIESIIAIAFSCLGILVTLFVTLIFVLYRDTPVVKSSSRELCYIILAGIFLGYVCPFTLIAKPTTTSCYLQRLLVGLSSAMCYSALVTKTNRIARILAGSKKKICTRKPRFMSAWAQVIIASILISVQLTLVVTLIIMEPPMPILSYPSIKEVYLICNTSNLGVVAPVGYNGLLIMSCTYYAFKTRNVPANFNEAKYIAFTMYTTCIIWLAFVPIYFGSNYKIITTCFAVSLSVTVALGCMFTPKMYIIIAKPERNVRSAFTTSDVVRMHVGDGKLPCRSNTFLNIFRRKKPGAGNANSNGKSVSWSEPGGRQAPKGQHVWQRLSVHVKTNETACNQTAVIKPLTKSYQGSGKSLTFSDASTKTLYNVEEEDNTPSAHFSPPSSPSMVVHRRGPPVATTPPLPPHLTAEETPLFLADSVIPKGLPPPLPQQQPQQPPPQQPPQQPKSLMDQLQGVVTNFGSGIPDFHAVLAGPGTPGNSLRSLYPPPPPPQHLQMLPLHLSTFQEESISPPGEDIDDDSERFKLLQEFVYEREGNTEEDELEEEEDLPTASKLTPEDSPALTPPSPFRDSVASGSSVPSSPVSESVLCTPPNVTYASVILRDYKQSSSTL

[7] = target: Metabotropic glutamate receptor 1 (Rattus norvegicus); experiment: Antagonist activity at rat mGluR1

Sequence of Metabotropic glutamate receptor 1 (Homo sapiens, UniProt Q13255) (Q13255 whole entry): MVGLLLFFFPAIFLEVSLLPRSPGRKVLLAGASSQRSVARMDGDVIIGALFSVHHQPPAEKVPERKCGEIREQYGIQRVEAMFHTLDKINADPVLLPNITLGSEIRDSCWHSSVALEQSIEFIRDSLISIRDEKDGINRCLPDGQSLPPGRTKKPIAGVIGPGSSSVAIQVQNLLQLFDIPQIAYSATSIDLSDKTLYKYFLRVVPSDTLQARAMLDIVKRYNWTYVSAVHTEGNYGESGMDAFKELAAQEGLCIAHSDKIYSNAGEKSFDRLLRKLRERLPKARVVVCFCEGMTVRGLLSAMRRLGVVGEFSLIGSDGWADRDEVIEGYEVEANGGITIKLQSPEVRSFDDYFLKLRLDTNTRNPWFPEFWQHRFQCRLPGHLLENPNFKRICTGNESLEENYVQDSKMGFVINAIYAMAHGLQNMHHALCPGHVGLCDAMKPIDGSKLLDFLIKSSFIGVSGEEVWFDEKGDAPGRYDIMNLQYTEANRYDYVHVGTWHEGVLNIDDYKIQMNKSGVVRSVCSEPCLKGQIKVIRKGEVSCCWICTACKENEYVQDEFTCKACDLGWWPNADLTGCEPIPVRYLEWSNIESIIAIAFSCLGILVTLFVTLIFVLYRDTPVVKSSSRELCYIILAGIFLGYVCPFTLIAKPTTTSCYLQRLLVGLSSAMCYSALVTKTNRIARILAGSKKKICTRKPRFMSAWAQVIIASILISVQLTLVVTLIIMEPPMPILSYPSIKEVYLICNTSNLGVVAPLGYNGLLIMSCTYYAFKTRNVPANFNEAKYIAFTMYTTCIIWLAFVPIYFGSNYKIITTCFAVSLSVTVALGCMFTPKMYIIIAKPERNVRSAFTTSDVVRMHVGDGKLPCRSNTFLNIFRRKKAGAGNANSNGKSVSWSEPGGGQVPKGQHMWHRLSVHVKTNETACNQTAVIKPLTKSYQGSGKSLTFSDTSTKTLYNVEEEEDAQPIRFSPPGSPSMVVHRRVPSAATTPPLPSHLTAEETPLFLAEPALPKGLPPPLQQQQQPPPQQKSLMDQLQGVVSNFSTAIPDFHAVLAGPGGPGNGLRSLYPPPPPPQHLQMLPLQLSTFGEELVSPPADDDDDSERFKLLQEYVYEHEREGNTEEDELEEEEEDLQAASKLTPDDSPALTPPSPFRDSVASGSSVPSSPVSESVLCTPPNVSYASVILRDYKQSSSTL
Sequence of Metabotropic glutamate receptor 5 (P41594 whole entry): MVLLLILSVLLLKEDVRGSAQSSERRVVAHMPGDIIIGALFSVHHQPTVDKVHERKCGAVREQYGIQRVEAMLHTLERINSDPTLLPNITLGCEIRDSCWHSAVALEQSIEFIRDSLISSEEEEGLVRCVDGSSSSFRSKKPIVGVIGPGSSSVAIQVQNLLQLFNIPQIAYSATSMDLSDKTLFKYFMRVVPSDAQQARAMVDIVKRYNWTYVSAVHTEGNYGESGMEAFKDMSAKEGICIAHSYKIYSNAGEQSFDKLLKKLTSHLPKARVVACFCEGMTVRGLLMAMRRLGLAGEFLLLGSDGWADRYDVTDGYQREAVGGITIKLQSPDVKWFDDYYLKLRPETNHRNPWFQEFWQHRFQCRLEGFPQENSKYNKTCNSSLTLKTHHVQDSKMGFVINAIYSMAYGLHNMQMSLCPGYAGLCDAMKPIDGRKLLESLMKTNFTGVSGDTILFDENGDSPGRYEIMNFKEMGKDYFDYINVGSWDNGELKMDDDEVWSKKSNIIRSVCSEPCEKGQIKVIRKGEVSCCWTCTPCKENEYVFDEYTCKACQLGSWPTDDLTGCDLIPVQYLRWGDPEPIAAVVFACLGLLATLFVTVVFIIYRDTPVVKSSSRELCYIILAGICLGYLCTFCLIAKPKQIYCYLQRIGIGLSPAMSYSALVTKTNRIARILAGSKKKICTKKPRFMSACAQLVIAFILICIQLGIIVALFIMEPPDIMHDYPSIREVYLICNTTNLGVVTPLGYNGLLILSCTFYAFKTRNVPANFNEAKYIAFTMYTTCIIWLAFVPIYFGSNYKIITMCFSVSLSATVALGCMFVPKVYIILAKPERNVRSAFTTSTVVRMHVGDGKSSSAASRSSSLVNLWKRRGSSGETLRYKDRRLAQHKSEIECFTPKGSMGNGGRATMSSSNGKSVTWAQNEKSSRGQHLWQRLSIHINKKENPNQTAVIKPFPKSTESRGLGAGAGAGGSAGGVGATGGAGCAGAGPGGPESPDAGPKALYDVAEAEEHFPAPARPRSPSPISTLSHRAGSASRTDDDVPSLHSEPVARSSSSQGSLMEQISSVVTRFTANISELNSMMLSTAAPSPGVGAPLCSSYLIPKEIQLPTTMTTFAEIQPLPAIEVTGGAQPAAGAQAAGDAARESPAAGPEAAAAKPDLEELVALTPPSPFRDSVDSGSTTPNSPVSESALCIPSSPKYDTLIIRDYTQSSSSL

Row | Compound | IC50 [1] [nM] | IC50 [2] [nM] | AUC [3] [ng·h/mL] | concentration at 6 h [4] [ng/g] | Kp [5] | Ki [6] [nM] | Ki [7] [nM]
1 | Cc1nc(N)c2c(n1)sc1c(=O)n(-c3ccccc3)cnc12 | > 3000 | 16 |  |  |  |  | 
2 | COc1ccc(-n2cnc3c(sc4nc(C)nc(N)c43)c2=O)cc1 | > 3000 | 188 |  |  |  |  | 
3 | Cc1nc(N)c2c(n1)sc1c(=O)n(-c3ccc(F)cc3)cnc12 | > 3000 | 68 |  |  |  |  | 
4 | Cc1nc(N)c2c(n1)sc1c(=O)n(-c3ccc(Cl)cc3)cnc12 | > 3000 | 11 |  |  |  |  | 
5 | Cc1ccc(-n2cnc3c(sc4nc(N)nc(N)c43)c2=O)cc1 | > 3000 |  | 965 | 100 | 0.9 |  | 
6 | CNc1nc(N)c2c(n1)sc1c(=O)n(-c3ccc(C)cc3)cnc12 | > 3000 | > 1000 |  |  |  |  | 
7 | Cc1ccc(-n2cnc3c(sc4nc(-n5cccc5)nc(N)c43)c2=O)cc1 | > 3000 | > 1000 |  |  |  |  | 
8 | Cc1ccc(-n2cnc3c(sc4[nH]c(=O)nc(N)c43)c2=O)cc1 | > 3000 | > 1000 |  |  |  |  | 
9 | Cc1ccc(-n2cnc3c(sc4nc(S)nc(N)c43)c2=O)cc1 | > 3000 | 3.1 |  |  |  |  | 
10 | Cc1ccc(-n2cnc3c(sc4nc(C)nc(N)c43)c2=O)cc1 | > 3000 | 27 | 2110 | 29 | 0.2 | 115 | 115
11 | Cc1ccc(-n2cnc3c(sc4nc(C(F)(F)F)nc(N)c43)c2=O)cc1 | > 3000 | > 1000 |  |  |  |  | 
12 | Cc1ccc(-n2cnc3c(sc4nc(C5CC5)nc(N)c43)c2=O)cc1 | > 3000 | 326 |  |  |  |  | 
13 | COc1ccc(-n2cnc3c(sc4nccc(N(C)C)c43)c2=O)cc1 | > 3000 |  |  |  |  |  | 
